Measurements as given in US20190048052A1, “ANTI-MICROBIAL PEPTIDES AND COATINGS” (Board of Regents of the University of Nebraska, priority 2016, published 2019).
Values after ≈ are worked out from the molar mass of the structure shown. Where two headings read alike, the source gives them in different places. Each block holds one molecule with its values, some of them ahead of it. Non-standard residues stand in square brackets, D forms with d. Residues, ends and D or L forms follow the SMILES beside them. Bip = N[C@@H](Cc1ccc(-c2ccccc2)cc1)C(=O)O

Legend:
A. baumannii B2367-12 = format: cell-based, Acinetobacter baumannii
Method: (§1) Bacterial strains used in this study included Enterococcus faecium ATCC51559, Staphylococcus aureus USA300 LAC, Klebsiella pneumoniae ATCC 13883, Acinetobacter baumannii B2367-12, Pseudomonas aeruginosa PAO1, Enterobacter cloacae B2366-12 and Escherichia coli ATCC 25922, wherein the first six constituting the ESKAPE pathogens. Tryptic soy broth (TSB) for bacterial growth was obtained from BD Bioscience (Sparks, Md.).
(§2) The antibacterial activity of peptides was evaluated using a standard broth microdilution protocol as described (Wang et al. (2012) Antimicrob. Agents Chemother., 56:845-856). In brief, 5 μl of each bacterium (stored at −80° C.) were inoculated into TSB medium (2 ml) and grown overnight. A second inoculation was made in the morning by delivering 10 μl of the overnight culture to a fresh TSB medium. After 2-3 hours growth at 37° C., 225 rpm, logarithmic phase bacterial cultures (OD600≈0.5) were diluted and partitioned into a 96-well polystyrene microplate with ˜10^5 colony forming units (CFU) per well (90 μl aliquots). After treatment with 10 μl of peptide solutions at various concentrations, microplates were incubated at 37° C. overnight and read on a ChroMate® 4300 Microplate Reader at 630 nm (GMI, Ramsey, Minn.). The medium was used as a blank where no bacteria should grow.

E. faecium ATCC51559 = format: cell-based, Enterococcus faecium
Method: as §1, §2

P. aeruginosa PAO1 = format: cell-based, Pseudomonas aeruginosa
Method: as §1, §2

E. cloacae B2366-12 = format: cell-based, Enterobacter cloacae
Method: as §1, §2

S. aureus USA300 LAC = format: cell-based, Staphylococcus aureus
Method: as §1, §2

E. coli ATCC 25922 = format: cell-based, Escherichia coli
Method: as §1, §2

S. aureus USA300 [1] = test: Propidium iodide membrane permeation; format: cell-based, Staphylococcus aureus
Method: Fluorescence spectroscopy was also used to follow bacterial killing. In brief, a serially diluted 10× peptide (10 μL) was made in 96-well coming COSTAR microtiter plates. Propidium iodide (2 μL) was added at 50 μM to each well which was finally incubated with S. aureus USA300 bacteria (88 μL at a final OD600 ˜0.1) with continuous shaking at 100 rpm, 37° C. in a FLUOstar® Omega (BMG LABTECH Inc, NC) microplate reader. The plates were read every 5 minutes for a total duration of 2 hours with excitation and emission wavelengths at 584 nm and 620 nm respectively. Plots were made using averaged readings from duplicated experiments after subtraction of the media control.

S. aureus USA300 [2] = format: cell-based, Staphylococcus aureus; conditions: USA300
Method: The minimal bactericidal concentration (MBC) was determined by plating 50 μl of the content in the clear wells of the above MIC assays. MBC was determined on the petri dishes without bacterial colony formation after overnight growth (Wang et al. (2012) Biochemistry 51:653-664).

E. coli K12 = format: cell-based, Escherichia coli; conditions: K12
Method: (§3) The bacterial strains used here included Gram-positive bacteria Staphylococcus aureus USA300 LAC, Staphylococcus epidermidis 1457, Bacillus subtilis 168, and Gram-negative Escherichia coli K12. Clinical strains of S. aureus, including Mu50, UAMS-1 and Newman, were also evaluated.
(§4) The antimicrobial activity of peptides was evaluated using a standard broth microdilution protocol (Wang, G. (2008) J. Biol. Chem., 283:32637-32643). In brief, exponential phase bacteria at 10^6 CFU were incubated with serially diluted peptides overnight for ˜20 hours at 37° C. The plates were read on a ChroMate® 4300 Microplate Reader at 630 nm (GMI, Ramsey, Minn.). […] In addition, the effects of human serum (up to 10%), pH (6.8, 7.4 and 8.0) and 150 mM sodium chloride (NaCl) on MICs against S. aureus USA300 were also evaluated (Mishra et al. (2015) RSC Advances 5:59758-59769).

S. aureus USA300 [3] = format: cell-based, Staphylococcus aureus
Method: as §3, §4

B. subtilis 168 = format: cell-based, Bacillus subtilis
Method: as §3, §4

S. epidermidis 1457 = format: cell-based, Staphylococcus epidermidis
Method: as §3, §4

MIC AB (A. baumannii B2367-12; B2367-12): 3.1 ± 0 µM (≈ 6.99 µg/mL)
MIC EF (E. faecium ATCC51559; ATCC51559): ≤3.1 µM
MIC PA (P. aeruginosa PAO1; PAO1): 6.25 ± 0 µM (≈ 14.1 µg/mL)
MIC ECl (E. cloacae B2366-12; B2366-12): 6.25 ± 0 µM (≈ 14.1 µg/mL)
MIC SA (S. aureus USA300 LAC; USA300): 3.1 ± 0 µM (≈ 6.99 µg/mL)
MIC EC (E. coli ATCC 25922; ATCC 25922): 3.1 ± 0 µM (≈ 6.99 µg/mL)
Compound: CC(C)C[C@H](NC(=O)[C@H](CC(N)=O)NC(=O)[C@H](CCCNC(=N)N)NC(=O)[C@@H](CC(C)C)NC(=O)[C@H](Cc1ccc(-c2ccccc2)cc1)NC(=O)[C@H](CC(=O)O)NC(=O)[C@H](CCCCN)NC(=O)[C@@H](CC(C)C)NC(=O)[C@H](CCCNC(=N)N)NC(=O)[C@H](CCC(N)=O)NC(=O)[C@@H](NC(=O)[C@@H](CC(C)C)NC(=O)[C@H](CCCNC(=N)N)NC(=O)[C@H](CCCCN)NC(=O)[C@H](Cc1ccc(-c2ccccc2)cc1)NC(=O)CN)C(C)C)C(=O)N[C@H](C(N)=O)C(C)C [Merecidin, reference compound] (H-G[Bip]KR[dL]VQR[dL]KD[Bip][dL]RNLV-NH2; N-terminus and C-terminus assumed)

Compound: CCCCCCCCCC(=O)N[C@@H](Cc1c[nH]c2ccccc12)C(=O)N[C@H](CC(N)=O)C(=O)N[C@@H](CC(=O)O)C(=O)N[C@@H]1C(=O)NCC(=O)N[C@@H](CCCN)C(=O)N[C@@H](CC(=O)O)C(=O)N[C@H](C)C(=O)N[C@@H](CC(=O)O)C(=O)NCC(=O)N[C@H](CO)C(=O)N[C@@H]([C@H](C)CC(=O)O)C(=O)N[C@@H](CC(=O)c2ccccc2N)C(=O)O[C@@H]1C [daptomycin, reference compound]
propidium iodide fluorescence change after treatment (S. aureus USA300 [1]): rapid increase in fluorescence

Compound: CN[C@H](CC(C)C)C(=O)N[C@H]1C(=O)N[C@@H](CC(N)=O)C(=O)N[C@H]2C(=O)N[C@H]3C(=O)N[C@H](C(=O)N[C@H](C(=O)O)c4cc(O)cc(O)c4-c4cc3ccc4O)[C@H](O)c3ccc(c(Cl)c3)Oc3cc2cc(c3O[C@@H]2O[C@H](CO)[C@@H](O)[C@H](O)[C@H]2O[C@H]2C[C@](C)(N)[C@H](O)[C@H](C)O2)Oc2ccc(cc2Cl)[C@H]1O [vancomycin, reference compound]
propidium iodide fluorescence change after treatment (S. aureus USA300 [1]): no increase in fluorescence

MIC E. coli K12 (E. coli K12): >100 µM
MIC S. aureus USA300 (S. aureus USA300 [3]; USA300): 3.1 to 6.2 µM
MIC B. subtilis 168 (B. subtilis 168): 6.2 µM (≈ 7.64 µg/mL)
MIC S. epidermidis 1457 (S. epidermidis 1457): >50 µM
Compound: CC[C@H](C)[C@H](NC(=O)[C@H](CCCNC(=N)N)NC(=O)[C@H](CO)NC(=O)[C@H](CC(C)C)NC(=O)[C@H](Cc1c[nH]c2ccccc12)NC(=O)[C@H](Cc1c[nH]c2ccccc12)NC(=O)[C@@H](N)Cc1c[nH]c2ccccc12)C(=O)N[C@@H](Cc1c[nH]c2ccccc12)C(N)=O [TetraF2W, WWWLSRIW] (H-WWWLSRIW-NH2; N-terminus and C-terminus assumed)
MBC S. aureus USA300 (S. aureus USA300 [2]): 6.2 µM (≈ 7.64 µg/mL)
fold more potent than temporin-SHf (anti-MRSA) (S. aureus USA300 [3]; S. aureus USA300): 4-8 fold

MIC AB (A. baumannii B2367-12): 25 µM (≈ 53.7 µg/mL)
MIC EF (E. faecium ATCC51559): 6.25 µM (≈ 13.4 µg/mL)
MIC PA (P. aeruginosa PAO1): > 50 µM
MIC ECl (E. cloacae B2366-12): > 50 µM
MIC SA (S. aureus USA300 LAC): 18 µM (≈ 38.7 µg/mL)
MIC EC (E. coli ATCC 25922): > 50 µM
Compound: CC[C@H](C)[C@H](NC(=O)[C@H](CCCNC(=N)N)NC(=O)[C@H](CCC(N)=O)NC(=O)[C@@H](NC(=O)[C@@H](NC(=O)[C@H](CCCNC(=N)N)NC(=O)[C@H](CCCCN)NC(=O)[C@H](Cc1ccccc1)NC(=O)[C@@H](N)CS)[C@@H](C)CC)C(C)C)C(=O)N[C@@H](CCCCN)C(=O)N[C@@H](CC(=O)O)C(=O)N[C@@H](Cc1ccccc1)C(=O)N[C@@H](CC(C)C)C(=O)N[C@@H](CCCNC(=N)N)C(=O)N[C@@H](CC(N)=O)C(=O)N[C@@H](CC(C)C)C(=O)N[C@H](C(N)=O)C(C)C [CysFK-16] (H-CFKRIVQRIKDFLRNLV-NH2; N-terminus and C-terminus assumed)
